Each structure is given as a SMILES string. pIC50: −log10 of the molar value.

The results in this text go back to patent publication US8471005B2 (Cephalon, Inc., priority 2008, dated 2013).

The target in one test is T1, JAK2 (Homo sapiens, UniProt O60674).
T1 construct: host or cells: baculovirus expression system
Briefly: Recombinant Human JAK2 Kinase Assay (TRF). Conditions: JAK2 kinase inhibition, 0.2 μM ATP; read-out: JAK2 Potency. The test is classed as biochemical. The procedure, abridged:
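Baculovirus-expressed JAK2 (15 ng/ml) phosphorylated a biotinylated 15-mer peptide captured on Neutravidin, in 20 mM HEPES pH 7.2, 0.2 μM ATP, 1 mM MnCl2, 0.1% BSA, 2.5% DMSO final, 20 min at room temperature. Phosphoproduct detected by time-resolved fluorescence with Eu-N1-labelled PY100 antibody.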

The target of a further test is T2, ALK (Homo sapiens, UniProt Q9UM73).
T2 construct: host or cells: baculovirus expression system
The test is described as follows: ALK Kinase Assay (ELISA/TRF, PLC-γ substrate). The test is classed as biochemical. Conditions: ALK kinase inhibition, 1 μM ATP; read-out: ALK Potency. The procedure, abridged:
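Read-out is time-resolved fluorescence from a Eu-N1-labeled PT66 antibody that binds phosphorylated PLC-γ, the substrate coated at 10 μg/mL in TBS. ALK at 30 ng/ml starts the reaction, which runs 15 minutes at 37° C.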
On the technique in general: An ELISA detects its analyte on a solid surface through an enzyme-linked reagent.

T1 sequence (O60674 whole entry): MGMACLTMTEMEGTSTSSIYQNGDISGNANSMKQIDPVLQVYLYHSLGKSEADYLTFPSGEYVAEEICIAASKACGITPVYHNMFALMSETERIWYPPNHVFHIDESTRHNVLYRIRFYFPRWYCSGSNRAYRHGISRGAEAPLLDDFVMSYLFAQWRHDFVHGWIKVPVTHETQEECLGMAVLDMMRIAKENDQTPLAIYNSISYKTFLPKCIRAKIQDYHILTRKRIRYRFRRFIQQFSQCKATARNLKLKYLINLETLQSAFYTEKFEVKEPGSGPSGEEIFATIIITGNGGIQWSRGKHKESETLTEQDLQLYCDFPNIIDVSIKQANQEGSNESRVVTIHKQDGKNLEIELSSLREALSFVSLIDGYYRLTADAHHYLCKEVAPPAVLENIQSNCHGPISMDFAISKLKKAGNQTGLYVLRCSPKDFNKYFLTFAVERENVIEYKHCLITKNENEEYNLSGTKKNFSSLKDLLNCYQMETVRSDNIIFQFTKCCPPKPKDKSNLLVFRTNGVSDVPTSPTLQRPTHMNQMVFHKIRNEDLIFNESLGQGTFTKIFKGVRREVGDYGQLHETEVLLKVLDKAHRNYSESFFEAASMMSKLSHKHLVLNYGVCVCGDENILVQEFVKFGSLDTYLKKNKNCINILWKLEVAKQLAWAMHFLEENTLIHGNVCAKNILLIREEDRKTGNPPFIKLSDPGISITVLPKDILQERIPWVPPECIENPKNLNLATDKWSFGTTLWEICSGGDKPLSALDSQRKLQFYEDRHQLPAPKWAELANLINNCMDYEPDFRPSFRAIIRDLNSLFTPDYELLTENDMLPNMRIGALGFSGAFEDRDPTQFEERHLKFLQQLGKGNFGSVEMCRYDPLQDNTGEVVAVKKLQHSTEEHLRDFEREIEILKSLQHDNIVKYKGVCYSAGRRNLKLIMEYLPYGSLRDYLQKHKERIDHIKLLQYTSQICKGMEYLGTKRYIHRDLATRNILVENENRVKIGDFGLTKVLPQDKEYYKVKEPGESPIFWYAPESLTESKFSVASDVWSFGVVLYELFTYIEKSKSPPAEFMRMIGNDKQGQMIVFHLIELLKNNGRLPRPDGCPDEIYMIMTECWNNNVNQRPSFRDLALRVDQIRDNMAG
T2 sequence (Q9UM73 19-1620): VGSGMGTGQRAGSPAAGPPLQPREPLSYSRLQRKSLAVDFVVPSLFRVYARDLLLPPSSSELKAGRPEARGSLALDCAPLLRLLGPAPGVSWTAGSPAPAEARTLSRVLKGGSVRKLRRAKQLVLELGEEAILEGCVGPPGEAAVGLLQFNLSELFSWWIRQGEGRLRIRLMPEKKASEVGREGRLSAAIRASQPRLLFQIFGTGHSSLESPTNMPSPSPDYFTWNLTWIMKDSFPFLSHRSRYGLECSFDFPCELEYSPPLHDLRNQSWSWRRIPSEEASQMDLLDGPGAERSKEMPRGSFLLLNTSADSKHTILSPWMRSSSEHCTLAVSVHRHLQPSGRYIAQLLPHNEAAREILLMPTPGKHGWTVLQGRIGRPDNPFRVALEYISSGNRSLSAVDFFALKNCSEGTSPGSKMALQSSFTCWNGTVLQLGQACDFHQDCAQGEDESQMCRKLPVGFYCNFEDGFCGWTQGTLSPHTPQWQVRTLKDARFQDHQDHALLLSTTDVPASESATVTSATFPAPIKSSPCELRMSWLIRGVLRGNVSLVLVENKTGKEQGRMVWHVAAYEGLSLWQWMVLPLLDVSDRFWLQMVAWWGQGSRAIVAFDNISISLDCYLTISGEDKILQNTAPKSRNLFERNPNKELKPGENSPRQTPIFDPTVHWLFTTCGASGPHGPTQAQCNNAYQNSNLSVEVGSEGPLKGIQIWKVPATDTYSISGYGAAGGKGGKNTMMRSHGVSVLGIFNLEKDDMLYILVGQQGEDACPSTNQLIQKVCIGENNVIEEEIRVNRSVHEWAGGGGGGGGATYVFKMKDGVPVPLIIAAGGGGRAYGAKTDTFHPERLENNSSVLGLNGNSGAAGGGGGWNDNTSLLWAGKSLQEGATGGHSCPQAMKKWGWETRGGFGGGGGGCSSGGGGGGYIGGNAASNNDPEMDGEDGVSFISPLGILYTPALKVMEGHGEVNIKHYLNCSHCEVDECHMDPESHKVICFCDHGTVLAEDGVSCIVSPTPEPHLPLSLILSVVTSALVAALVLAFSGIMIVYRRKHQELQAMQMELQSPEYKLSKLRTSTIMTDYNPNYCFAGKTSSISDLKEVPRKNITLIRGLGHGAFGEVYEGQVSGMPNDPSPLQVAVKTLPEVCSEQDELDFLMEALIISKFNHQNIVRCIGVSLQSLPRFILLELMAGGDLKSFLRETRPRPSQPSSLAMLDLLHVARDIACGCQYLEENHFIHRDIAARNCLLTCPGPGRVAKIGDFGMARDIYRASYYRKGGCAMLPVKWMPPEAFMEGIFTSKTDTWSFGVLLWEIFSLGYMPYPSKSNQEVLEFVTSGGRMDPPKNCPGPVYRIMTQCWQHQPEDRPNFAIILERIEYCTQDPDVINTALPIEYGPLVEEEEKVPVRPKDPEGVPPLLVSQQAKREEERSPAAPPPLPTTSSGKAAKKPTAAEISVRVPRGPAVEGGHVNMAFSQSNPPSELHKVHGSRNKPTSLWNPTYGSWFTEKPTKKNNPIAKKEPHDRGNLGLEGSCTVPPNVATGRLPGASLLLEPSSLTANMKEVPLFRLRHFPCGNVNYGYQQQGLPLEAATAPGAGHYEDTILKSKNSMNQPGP

On to `CC(=O)Nc1cc(Nc2ncc3ccc(-c4cccc(S(=O)(=O)NC(C)(C)C)c4)n3n2)ccc1Cl` [Example 888, N-{5-[7-(3-tert-Butylsulfamoyl-phenyl)-pyrrolo[2,1-f][1,2,4]triazin-2-ylamino]-2-chloro-phenyl}-acetamide], for which the pIC50 at JAK2 was > 7.00; on ALK, 6.00 to 7.00.
On to `CC(C)(C)NS(=O)(=O)c1cccc(-c2ccc3cnc(Nc4cccc(NS(C)(=O)=O)c4)nn23)c1` [Example 889, N-tert-Butyl-3-[2-(3-methanesulfonylamino-phenylamino)-pyrrolo[2,1-f][1,2,4]triazin-7-yl]-benzenesulfonamide], for which the pIC50 was > 7.00 on JAK2 and 6.00 to 7.00 at ALK.
As for `CCOC(=O)c1cccc(Nc2ncc3ccc(-c4cccc(S(=O)(=O)NC(C)(C)C)c4)n3n2)c1` [Example 890, 3-[7-(3-tert-Butylsulfamoyl-phenyl)-pyrrolo[2,1f][1,2,4]triazin-2-ylamino]-benzoic acid ethyl ester], the pIC50 on JAK2 was > 7.00; on ALK it was < 5.00.
On to `CN1CCN(C(=O)c2cccc(Nc3ncc4ccc(-c5cccc(S(=O)(=O)NC(C)(C)C)c5)n4n3)c2)CC1` [Example 891, N-tert-Butyl-3-{2-[3-(4-methyl-piperazine-1-carbonyl)-phenylamino]-pyrrolo[2,1-f][1,2,4]triazin-7-yl}-benzenesulfonamide], for which the pIC50 on JAK2 is > 7.00; at ALK, 6.00 to 7.00.
Take `CC(C)(C)NS(=O)(=O)c1cccc(-c2ccc3cnc(Nc4cccc(C(=O)N5CCOCC5)c4)nn23)c1` [Example 892, N-tert-Butyl-3-{2-[3-(morpholine-4-carbonyl)-phenylamino]-pyrrolo[2,1-f][1,2,4]triazin-7-yl}-benzenesulfonamide]: the pIC50 at JAK2 was > 7.00; on ALK, 5.00 to 6.00.
Taken in the same sequence, the figures for `CC(=O)Nc1cccc(Nc2ncc3ccc(-c4cccc(NCCS(C)(=O)=O)c4)n3n2)c1` [Example 893, N-(3-{7-[3-(2-Methanesulfonyl-ethylamino)-phenyl]-pyrrolo[2,1-f][1,2,4]triazin-2-ylamino}-phenyl)-acetamide] were > 7.00 and 5.00 to 6.00.
Take `CN1CCN(c2cccc(Nc3ncc4ccc(-c5cccc(NCCS(C)(=O)=O)c5)n4n3)c2)CC1` [Example 894, {7-[3-(2-Methanesulfonyl-ethylamino)-phenyl]-pyrrolo[2,1-f][1,2,4]triazin-2-yl}-[3-(4-methyl-piperazin-1-yl)-phenyl]-amine]: the figures for the pIC50 on JAK2 and on ALK were > 7.00 and 6.00 to 7.00, respectively.
Taken in the same sequence, the figures for `CC(C)(C)NS(=O)(=O)c1cccc(-c2ccc3cnc(Nc4cccc(C(=O)O)c4)nn23)c1` [Example 895, 3-[7-(3-tert-Butylsulfamoyl-phenyl)-pyrrolo[2,1-f][1,2,4]triazin-2-ylamino]-benzoic acid] were > 7.00 and 5.00 to 6.00.
For `CC(C)(C)NS(=O)(=O)c1cccc(-c2ccc3cnc(Nc4cccc(N)c4)nn23)c1` [Example 896, 3-[2-(3-Amino-phenylamino)-pyrrolo[2,1-f][1,2,4]triazin-7-yl]-N-tert-butyl-benzenesulfonamide] the same measures were > 7.00 and 6.00 to 7.00.
Taken in the same sequence, the figures for `CN(C)CC(=O)Nc1cccc(Nc2ncc3ccc(-c4cccc(S(=O)(=O)NC(C)(C)C)c4)n3n2)c1` [Example 897, N-{3-[7-(3-tert-Butylsulfamoyl-phenyl)-pyrrolo[2,1-f][1,2,4]triazin-2-ylamino]-phenyl}-2-dimethylamino-acetamide] were > 7.00 and > 7.00.
As to `COc1ccc(-c2ccc3cnc(Nc4cccc(N)c4)nn23)cn1` [Example 898, N-[7-(6-Methoxy-pyridin-3-yl)-pyrrolo[2,1-f][1,2,4]triazin-2-yl]-benzene-1,3-diamine], the pIC50 on JAK2 was > 7.00; on ALK it was 5.00 to 6.00.
For the molecule `COc1ccc(-c2ccc3cnc(Nc4cccc(NC(=O)CN(C)C)c4)nn23)cn1` [Example 899, 2-Dimethylamino-N-{3-[7-(6-methoxy-pyridin-3-yl)-pyrrolo[2,1-f][1,2,4]triazin-2-ylamino]-phenyl}-acetamide], the pIC50 at JAK2 is > 7.00; on ALK it was 6.00 to 7.00.
For the molecule `COc1ccc(-c2ccc3cnc(Nc4cccc(NC(=O)[C@@H](C)OC)c4)nn23)cn1` [Example 900, (R)-2-Methoxy-N-{3-[7-(6-methoxy-pyridin-3-yl)-pyrrolo[2,1-f][1,2,4]triazin-2-ylamino]-phenyl}-propionamide], the pIC50 was > 7.00 at JAK2 and 6.00 to 7.00 on ALK.
In the case of `CCNC(=O)Nc1cccc(Nc2ncc3ccc(-c4ccc(OC)nc4)n3n2)c1` [Example 901, 1-Ethyl-3-{3-[7-(6-methoxy-pyridin-3-yl)-pyrrolo[2,1-f][1,2,4]triazin-2-ylamino]-phenyl}-urea], the pIC50 is > 7.00 on JAK2 and < 5.00 on ALK.
With `CN1CCC(c2ccc(Nc3ncc4ccc(-c5cccc(S(=O)(=O)N(C)C)c5)n4n3)cc2)CC1` [Example 902, N,N-Dimethyl-3-{2-[4-(1-methyl-piperidin-4-yl)phenylamino]-pyrrolo[2,1-f][1,2,4]triazin-7-yl}-benzenesulfonamide], the pIC50 on JAK2 was > 7.00; on ALK, 6.00 to 7.00.
Taken in the same sequence, the figures for `CN1CCC(c2ccc(Nc3ncc4ccc(-c5cccc(S(=O)(=O)N6CCCC6)c5)n4n3)cc2)CC1` [Example 903, [4-(1-Methyl-piperidin-4-yl)-phenyl]-{7-[3-(pyrrolidine-1-sulfonyl)-phenyl]-pyrrolo[2,1-f][1,2,4]triazin-2-yl}-amine] were > 7.00 and 6.00 to 7.00.
Taken in the same sequence, the figures for `CN1CCC(c2ccc(Nc3ncc4ccc(-c5cccc(S(=O)(=O)NCc6ccccc6)c5)n4n3)cc2)CC1` [Example 904, N-Benzyl-3-{2-[4-(1-methyl-piperidin-4-yl)-phenylamino]-pyrrolo[2,1-f][1,2,4]triazin-7-yl}-benzenesulfonamide] were > 7.00 and 6.00 to 7.00.
Regarding `CN1CCC(c2ccc(Nc3ncc4ccc(-c5cccc(S(=O)(=O)N6CCCCC6)c5)n4n3)cc2)CC1` [Example 905, [4-(1-Methyl-piperidin-4-yl)-phenyl]-{7-[3-(piperidine-1-sulfonyl)-phenyl]-pyrrolo[2,1-f][1,2,4]triazin-2-yl}-amine], the pIC50 on JAK2 was > 7.00; at ALK, 6.00 to 7.00.
Taken in the same sequence, the figures for `CN1CCC(c2ccc(Nc3ncc4ccc(-c5cccc(S(=O)(=O)NC6CC6)c5)n4n3)cc2)CC1` [Example 906, N-Cyclopropyl-3-{2-[4-(1-methyl-piperidin-4-yl)-phenylamino]-pyrrolo[2,1-f][1,2,4]triazin-7-yl}-benzenesulfonamide] were > 7.00 and > 7.00.
For `CCNS(=O)(=O)c1cccc(-c2ccc3cnc(Nc4ccc(C5CCN(C)CC5)cc4)nn23)c1` [Example 907, N-Ethyl-3-{2-[4-(1-methyl-piperidin-4-yl)-phenylamino]-pyrrolo[2,1-f][1,2,4]triazin-7-yl}-benzenesulfonamide], the pIC50 at JAK2 and on ALK was > 7.00 each time.
Consider `COc1ccccc1-c1ccc2cnc(Nc3ccc(C4CCN(C)CC4)c(OC)c3)nn12` [Example 908, [3-Methoxy-4-(1-methyl-piperidin-4-yl)-phenyl]-[7-(2-methoxy-phenyl)-pyrrolo[2,1-f][1,2,4]triazin-2-yl]-amine], for which the pIC50 on JAK2 and on ALK was > 7.00 in each case.
